Data published in patent US12048714B2, “Products and methods for organ protection with noble nanoparticles” (UCHICAGO ARGONNE, LLC, priority 2020, dated 2024).
“Also recorded” adds a separate entry of the source.

Experiments:
[1] = Ex situ reduction of gold precursors by NADH to Au NPs, monitored by UV-vis spectra; conditions: for formation of Au NPs / reduction to Au0 when mixed with NADH: gold precursor mixed with NADH, ex situ
Protocol: Gold (III) chloride (AuCl3) and cofactors, NADH, NADPH and ATP, were purchased from Sigma/Aldrich (St. Louis, MO). Paraformaldehyde/glutaraldehyde fixative solution was purchased from Electron Microscopy Sciences (Hatfield, PA). Gold NPS were formed through reduction of the AuCl3 by cofactors. Briefly, 100 μM NADH solution in PBS, pH 7.4, was placed in a cuvette and mixed with aliquots of AuCl3 in the same buffer to achieve 4:1, 2:1, and equimolar NADH/precursor ratios, at room temperature under constant stirring. Oxidation of NADH and formation of Au NPs were recorded at 340 nm and 520 nm, respectively, by UV-vis spectra using CARY-50 spectrophotometer.
AuCl3 was chosen as a precursor due to higher electron sinking capacity of Au (III) and higher stability as compared to Au(I) that can transform in vivo into Au(III) (Thakor et al., Nano Lett, 2011, 11: 4029-4036).

[2] = tested on: living acute brain sections; experiment: In-situ gold nanoparticle biosynthesis in hypoxic living acute brain sections (staining, SAXS/WAXS, TEM); type: cell-based, mice C57BL/6J
Protocol: All animal procedures and the brain slice preparation procedures were performed in accordance with the Institutional Animal Care and Use Committee at the University of Chicago. Experimental mice C57BL/6J (male, 17 days old, n=2) were anesthetized by intraperitoneal injection of ketamine-xylazine, decapitated, and had their brains quickly removed. The brains were placed to the ice-cold “cut” artificial cerebrospinal fluid (ACSF) solution (containing the following, in mM: 3 KCl, 26 NaHCO3, 1 NaH2PO4, 0.5 CaCl2), 3.5 MgSO4, 25 dextrose, 123 sucrose) for quick, less than 5 min, slicing on vibratome at a thickness of 450 μm. The sections then were placed into an oxygenated incubation ACSF solution (containing the following, in mM: 123 NaCl, 3 KCl, 26 NaHCO3, 1 NaH2PO4, 2 CaCl2), 6 MgSO4, 25 dextrose) for 40 min, maintained at 32-36° C. (Sadovsky et al., J Neurosci, 2013, 33:14048-676). Tissue was left to rest at room temperature for 30 min before hypoxic induction. Hypoxia was induced in brain slices (i.e., living acute brain sections) in an oxygen-deprived chamber for 5 min, while their opposite hemisphere counterparts were used as normally oxygenated controls.
Three aliquots of aqueous AuCl3 were added to oxygen-deprived and oxygenated (control) brain slices to reach 100 μM-10 mM final concentrations of the precursor, incubated for 5 min, thoroughly rinsed (to ensure removal of precursor excess), and fixed using 2% glutaraldehyde+2% paraformaldehyde in 0.1M phosphate buffer, pH 7.4, and then stored in the same fixing solution at +5° C. before imaging and analyses.
Before the beam experiment, brain slices were removed from the ACSF solution, and mounted by sealing them between two thin glass cover slides (Fisherfinest). In situ small-angle X-ray scattering (SAXS) and wide angle X-ray scattering (WAXS) (SAXS/WAXS) measurements were carried out at beamline 12-ID-B of the Advanced Photon Source (APS), Argonne National Laboratory. In situ SAXS data were analyzed by custom-built software that is run on Matlab after standard data correction including background correction.
To isolate Au NPs, fixed brain slices were freeze-dried and mechanically grinded down. Then the NPs were extracted by DI water followed by separation of the biological debris via centrifugation (2000 rpm for 10 min). The NPs-containing supernatant were dropped onto an Ultrathin Carbon Cu transmission electron microscopy (TEM) grid with the Formvar pre-removed in toluene. Samples were allowed to set for about 1 hour and then rinsed by DI water. TEM analysis of the NPs was performed with a JEM-2100F field emission electron microscope (JEOL LTD, Tokyo, Japan) operated at 200 kV.
Coronal 450 μm thick sections of the mouse brain were isolated and prepared by a technique that allows maintaining the integrity of the isolated brain functions for sufficient experimental time-lapse, as depicted in FIGS. 4A-D. (See Sadovsky et al., J Neurosci, 2013, 33: 14048-U14676). The prepared living brain slices were incubated in a chamber with oxygenated ACSF solution (containing the following, in mM: 123 NaCl, 3 KCl, 26 NaHCO3, 1 NaH2PO4, 2 CaCl2), 6 MgSO4, 25 dextrose) for 40 min, maintained at 32-36° C. (Sadovsky et al., J Neurosci, 2013, 33: 14048-14676). Tissue was left to rest at room temperature for 30 min before hypoxic induction. Hypoxia was induced in brain slices in an oxygen-deprived chamber for 5 min, while their opposite hemisphere counterparts were used as normally oxygenated controls. […]

## [Cl][Au] [AuCl, gold monochloride]
[1]
  formation of Au NPs / reduction to Au0 when mixed with NADH: reduced by NADH to Au^0

## O=C([O-])CC([S-])C(=O)[O-].[Au+].[Na+].[Na+] (stereo not drawn) [myochrysine, reference compound]
[1]
  formation of Au NPs / reduction to Au0 when mixed with NADH: yielded no Au NPs

## Gold (III) chloride [AuCl3]
[1]; AuCl3/NADH molar ratio 1:4
  time of reaction after which pink color was detected by the naked eye: 20 min
  time to appearance of new peak at 520 nm characteristic for Au NPs: ~7 min
[1]; AuCl3/NADH molar ratio 1:4, NADH aqueous solution, UV-vis
  oxidation of NADH (peak at 340 nm): immediate drop of the intensity of peak at 340 nm
[2]; hypoxic slices, 100 μM precursor, 5 min incubation
  staining indicative of Au NPs in brain slices: revealed staining localized mainly in the outer regions of the brain section; also recorded: pink staining mainly in the outer regions of the brain section
[2]; hypoxic slices, 10 mM precursor
  formation of Au NPs / staining in brain slices: significant dark staining
[2]; hypoxic slices, 10 mM precursor, listed as Au(III) precursor
  formation of Au NPs / staining in brain slices: formation of Au NPs took place only in hypoxic brain slices
[2]; oxygenated (control) brain slices exposed to precursor
  formation of Au NPs / staining in brain slices: preserves its natural color
[2]; oxygenated (control) brain slices exposed to precursor, listed as Au(III) precursor
  formation of Au NPs / staining in brain slices: No Au NPs were detected

## CC(=O)OC[C@H]1O[C@@H]([S-])[C@H](OC(C)=O)[C@@H](OC(C)=O)[C@@H]1OC(C)=O.CCP(CC)CC.[Au+] [auranofin, reference compound]
[1]
  formation of Au NPs / reduction to Au0 when mixed with NADH: yielded no Au NPs

## OC[C@H]1O[C@H]([S-])[C@H](O)[C@@H](O)[C@@H]1O.[Au+] [solganal, reference compound]
[1]
  formation of Au NPs / reduction to Au0 when mixed with NADH: yielded no Au NPs
